Test results reported in patent US5747466A, “3-deoxy-3-descladinose derivatives of erythromycins A and B” (Abbott Laboratories, priority 1996, dated 1998).

Columns and labels:
Assay in all cases: In vitro antibacterial activity (MIC), agar dilution
ESCHERICHIA COLI SS = type: cell-based; conditions: E. coli SS; BHI agar, 35-37 °C, 20-24 h
[1] = tested on: NOCARDIA ARSTEROIDES ATCC 9970; type: cell-based; conditions: Nocardia ATCC 9970; BHI agar, 35-37 °C, 20-24 h
ESCHERICHIA COLI DC-2 = type: cell-based; conditions: E. coli DC-2; BHI agar, 35-37 °C, 20-24 h
EN[…] ATCC 8043 = type: cell-based, Enterococcus faecium; conditions: E. faecium ATCC 8043; BHI agar, 35-37 °C, 20-24 h
Procedure: (§1) Representative compounds of the present invention were assayed in vitro for antibacterial activity as follows: Twelve petri dishes containing successive aqueous dilutions of the test compound mixed with 10 mL of sterilized Brain Heart Infusion (BHI) agar (Difco 0418-01-5) were prepared. Each plate was inoculated with 1:100 (or 1:10 for slow-growing strains, such as Micrococcus and Streptococcus) dilutions of up to 32 different microorganisms, using a Steers replicator block. The inoculated plates were incubated at 35°-37° C. for 20 to 24 hours. In addition, a control plate, using BHI agar containing no test compound, was prepared and incubated at the beginning and end of each test.
(§2) An additional plate containing a compound having known susceptibility patterns for the organisms being tested and belonging to the same antibiotic class as the test compound was also prepared and incubated as a further control, as well as to provide test-to-test comparability. Erythromycin A was used for this purpose.
(§3) After incubation, each plate was examined. The minimum inhibitory concentration (MIC) was defined as the lowest concentration of drug yielding no growth, a slight haze, or sparsely isolated colonies on the inoculum spot as compared to the growth control.

[2] = tested on: STREPTOCOCCUS PYOGENES EES61; type: cell-based; conditions: S. pyogenes EES61; BHI agar, 35-37 °C, 20-24 h
STR[…] 508 = type: cell-based, Streptococcus agalactiae; conditions: S. agalactiae CMX 508; BHI agar, 35-37 °C, 20-24 h
Procedure: as §1, §2, §3

[3] = tested on: STAPHYLOCOCCUS AUREUS 1775; type: cell-based; conditions: S. aureus 1775; BHI agar, 35-37 °C, 20-24 h
ESCHERICHIA COLI H560 = type: cell-based; conditions: E. coli H560; BHI agar, 35-37 °C, 20-24 h
[4] = tested on: PSEUDOMONAS AERUGINOSA K799/61; type: cell-based; conditions: P. aeruginosa K799/61; BHI agar, 35-37 °C, 20-24 h
[5] = tested on: ACINETOBACTER CALCOACETICUS CMX 669; type: cell-based; conditions: A. calcoaceticus CMX 669; BHI agar, 35-37 °C, 20-24 h
[6] = tested on: STAPHYLOCOCCUS AUREUS NCTC10649M; type: cell-based; conditions: S. aureus NCTC10649M; BHI agar, 35-37 °C, 20-24 h
[7] = tested on: KLEBSIELLA PNEUMONIAE ATCC 8045; type: cell-based; conditions: K. pneumoniae ATCC 8045; BHI agar, 35-37 °C, 20-24 h
[8] = tested on: PROVIDENCIA STUARTII CMX 640; type: cell-based; conditions: P. stuartii CMX 640; BHI agar, 35-37 °C, 20-24 h
[9] = tested on: STREPTOCOCCUS BOVIS A-5169; type: cell-based; conditions: S. bovis A-5169; BHI agar, 35-37 °C, 20-24 h
ESCHERICHIA COLI KNK 437 = type: cell-based; conditions: E. coli KNK 437; BHI agar, 35-37 °C, 20-24 h
[10] = tested on: STAPHYLOCOCCUS AUREUS ATCC 6538P; type: cell-based; conditions: S. aureus ATCC 6538P; BHI agar, 35-37 °C, 20-24 h
[11] = tested on: STAPHYLOCOCCUS AUREUS CMX 553; type: cell-based; conditions: S. aureus CMX 553; BHI agar, 35-37 °C, 20-24 h
[12] = tested on: MYCOBACTERIUM SMEGMATIS ATCC 114; type: cell-based; conditions: M. smegmatis ATCC 114; BHI agar, 35-37 °C, 20-24 h
[13] = tested on: STAPHYLOCOCCUS EPIDERMIDIS 3519; type: cell-based; conditions: S. epidermidis 3519; BHI agar, 35-37 °C, 20-24 h
[14] = tested on: PSEUDOMONAS AERUGINOSA DPHD-2862; type: cell-based; conditions: P. aeruginosa DPHD-2862; BHI agar, 35-37 °C, 20-24 h
[15] = tested on: STAPHYLOCOCCUS AUREUS CMX 642A; type: cell-based; conditions: S. aureus CMX 642A; BHI agar, 35-37 °C, 20-24 h
M[…] ATCC 9341 = type: cell-based, Micrococcus luteus; conditions: M. luteus ATCC 9341; BHI agar, 35-37 °C, 20-24 h
Procedure: as §1, §2, §3

M[…] ATCC 4698 = type: cell-based, Micrococcus luteus; conditions: M. luteus ATCC 4698; BHI agar, 35-37 °C, 20-24 h
Procedure: as §1, §2, §3

[16] = tested on: STAPHYLOCOCCUS AUREUS A-5278; type: cell-based; conditions: S. aureus A-5278; BHI agar, 35-37 °C, 20-24 h
[17] = tested on: PSEUDOMONAS AERUGINOSA 5007; type: cell-based; conditions: P. aeruginosa 5007; BHI agar, 35-37 °C, 20-24 h
CANDIDA ALBICANS CCH 442 = type: cell-based; conditions: C. albicans CCH 442; BHI agar, 35-37 °C, 20-24 h

| SMILES | minimum inhibitory concentration (MIC) (ESCHERICHIA COLI SS) | minimum inhibitory concentration (MIC) [1] | minimum inhibitory concentration (MIC) (ESCHERICHIA COLI DC-2) | minimum inhibitory concentration (MIC) (EN[…] ATCC 8043) | minimum inhibitory concentration (MIC) [2] | minimum inhibitory concentration (MIC) (STR[…] 508) | minimum inhibitory concentration (MIC) [3] | minimum inhibitory concentration (MIC) (ESCHERICHIA COLI H560) | minimum inhibitory concentration (MIC) [4] | minimum inhibitory concentration (MIC) [5] | minimum inhibitory concentration (MIC) [6] | minimum inhibitory concentration (MIC) [7] | minimum inhibitory concentration (MIC) [8] | minimum inhibitory concentration (MIC) [9] | minimum inhibitory concentration (MIC) (ESCHERICHIA COLI KNK 437) | minimum inhibitory concentration (MIC) [11] | minimum inhibitory concentration (MIC) [12] | minimum inhibitory concentration (MIC) [13] | minimum inhibitory concentration (MIC) [14] | minimum inhibitory concentration (MIC) [15] | also measured |
| --- | --- | --- | --- | --- | --- | --- | --- | --- | --- | --- | --- | --- | --- | --- | --- | --- | --- | --- | --- | --- | --- |
| CC[C@H]1OC(=O)[C@H](C)C[C@H](C)[C@@H](O[C@@H]2O[C@H](C)C[C@H](N(C)C)[C@H]2O)[C@](C)(OC)C[C@@H](C)C(=NOCOCCOC)[C@H](C)[C@@H](O)[C@]1(C)O [Ex. 8] | 0.2 | 0.05 | 100 | 0.05 | 0.02 | 0.02 | > 100 | 25 | 1.56 | 12.5 | 0.2 | 25 | > 100 | 0.02 | 100 | 0.2 | 25 | 0.1 | 100 | 0.2 | minimum inhibitory concentration (MIC) [10]: 0.1; minimum inhibitory concentration (MIC) (M[…] ATCC 9341): 0.02; minimum inhibitory concentration (MIC) (M[…] ATCC 4698): 0.2; minimum inhibitory concentration (MIC) [16]: > 100; minimum inhibitory concentration (MIC) [17]: > 100; minimum inhibitory concentration (MIC) (CANDIDA ALBICANS CCH 442): > 100 |
| CC[C@H]1OC(=O)[C@H](C)C[C@H](C)[C@@H](O[C@@H]2O[C@H](C)C[C@H](N(C)C)[C@H]2O)[C@](C)(OC)C[C@@H](C)C(=NO)[C@H](C)[C@@H](O)[C@]1(C)O [Ex. 2] | 0.78 | 0.02 | > 100 | 3.1 | 0.78 | 0.78 | > 100 | > 100 | > 100 | > 100 | 12.5 | > 100 | > 100 | 0.78 | > 100 | 12.5 | 6.2 | 12.5 | > 100 | 12.5 | minimum inhibitory concentration (MIC) (M[…] ATCC 9341): 1.56; minimum inhibitory concentration (MIC) (M[…] ATCC 4698): 3.1; minimum inhibitory concentration (MIC) [16]: > 100; minimum inhibitory concentration (MIC) [17]: > 100; minimum inhibitory concentration (MIC) (CANDIDA ALBICANS CCH 442): > 100 |
